Patent publication US10941150B2, “Salt type and crystal type of 4h-pyrazolo [1, 5-alpha] benzimidazole compound and preparation method and intermediate thereof” (HUBEI BIO-PHARMACEUTICAL INDUSTRIAL TECHNOLOGICAL INSTITUTE …, priority 2015, dated 2021)
Read-outs that look alike come from different tables or passages of the source. Each block holds one compound with its values, some of them ahead of it.

Columns and labels:
MDA-MB-231 cells = assay: Anti-proliferation test (CCK8), singly and combined with TMZ; assay type: cell-based; conditions: for IC50: 8 days; for PF50: PF50=[IC50 of the tested compound]/[IC50 at fixed TMZ concentration]
Experimental: (§1) MDA-MB-436 and MDA-MB-231 cells were seeded in a 96-well plate at a density of 500 and 2000 cell per well, respectively, and cultured overnight. The medium was RPMI 1640 containing 10% (v/v) FBS and 1% (v/v) penicillin-streptomycin. They were treated for 8 days after the compound to be tested was added. Cell viability was measured by CCK8 kit. Specifically, 10 µL CCK8 reagent was added to each well and incubated in a 5% CO2 incubator at 37° C. for 3 hours. After shaking for 10 minutes, the light absorbance (OD value) was measured with a Flexstation III (Molecular Device) at 450 nm.
(§2) For the test of compound combinations (in combination with DNA damage drugs), the PF50 value was used to calculate the synergistic effect of the drug. PF50=[IC50 of the tested compound]/[IC50 of the compound at a fixed DNA damage drug concentration]. Temozolomide (TMZ) was used as DNA damage drug in this study.

MDA-MB-436 cells = assay: as above; assay type: cell-based; conditions: for IC50: 8 days; for PF50: PF50=[IC50 of the tested compound]/[IC50 at fixed TMZ concentration]
Experimental: as §1, §2

[1] = Solid stability test for Crystal type A under high temperature, high humidity and strong illumination; assay type: physicochemical
Experimental: The sample placed at 60° C. and 92.5% relative humidity was sealed with aluminum foil at the vial mouth, and the aluminum foil was pricked to ensure that the sample was fully exposed to the ambient air; the sample placed under strong illumination (5Klux) was sealed with a screw cap. The samples placed under different conditions were sampled and tested on the 10th day. The test results were compared with the initial test results on the 0th day.

[2] = Stability test for Crystal type A in different solvents; assay type: physicochemical; conditions: for Results (crystalline state by XRPD): 3 days
Description: After being stirred for 3 days, the samples were centrifuged and the solid in all samples were collected. XRPD was used to determine the crystalline state.

[3] = Homo sapiens, MDA-MB-231, 192 h, MDA-MB-231, combined with 1uM TMZ, average, read-out: IC50_Avg
[4] = Homo sapiens, MDA-MB-231, 192 h, MDA-MB-231, combined with 1uM TMZ, run N=1, read-out: IC50_N = 1
[5] = Homo sapiens, MDA-MB-231, 192 h, MDA-MB-231, combined with 1uM TMZ, run N=2, read-out: IC50_N = 2
[6] = Homo sapiens, MDA-MB-231, 192 h, MDA-MB-231, used singly, average, read-out: IC50_Avg
[7] = Homo sapiens, MDA-MB-231, 192 h, MDA-MB-231, used singly, run N=1, read-out: IC50_N = 1
[8] = Homo sapiens, MDA-MB-231, 192 h, MDA-MB-231, used singly, run N=2, read-out: IC50_N = 2
[9] = MDA-MB-231, combined with 1uM TMZ
[10] = Homo sapiens, MDA-MB-436, 192 h, MDA-MB-436, combined with 25uM TMZ, average, read-out: IC50_Avg
[11] = Homo sapiens, MDA-MB-436, 192 h, MDA-MB-436, combined with 25uM TMZ, run N=1, read-out: IC50_N = 1
[12] = Homo sapiens, MDA-MB-436, 192 h, MDA-MB-436, combined with 25uM TMZ, run N=2, read-out: IC50_N= 2
[13] = Homo sapiens, MDA-MB-436, 192 h, MDA-MB-436, used singly, average, read-out: IC50_Avg
[14] = Homo sapiens, MDA-MB-436, 192 h, MDA-MB-436, used singly, run N=1, read-out: IC50_N = 1
[15] = Homo sapiens, MDA-MB-436, 192 h, MDA-MB-436, used singly, run N=2, read-out: IC50_N= 2
[16] = MDA-MB-436, combined with 25uM TMZ
[17] = Strong illumination (sealed), 5Klux, day 10

IC50 (MDA-MB-231 cells; [3]): 30.7 µM
IC50 (MDA-MB-231 cells; [4]): 25.5 µM
IC50 (MDA-MB-231 cells; [5]): 36 µM
IC50 (MDA-MB-231 cells; [6]): 40.5 µM
IC50 (MDA-MB-231 cells; [7]): 44 µM
IC50 (MDA-MB-231 cells; [8]): 37 µM
IC50 (MDA-MB-436 cells; [10]): 0.018 µM
IC50 (MDA-MB-436 cells; [11]): 0.026 µM
IC50 (MDA-MB-436 cells; [12]): 0.01 µM
IC50 (MDA-MB-436 cells; [13]): 0.305 µM
IC50 (MDA-MB-436 cells; [14]): 0.444 µM
IC50 (MDA-MB-436 cells; [15]): 0.167 µM
Structure (SMILES): C[C@]1(c2nc3c(C(N)=O)cccc3[nH]2)CCCN1 [ABT-888, Veliparib]
PF50 (MDA-MB-231 cells; [9]): 1.32
PF50 (MDA-MB-436 cells; [16]): 17.14

Structure (SMILES): CC(C)N1CCC(C)(c2cnn3c2[nH]c2cc(F)cc(C(N)=O)c23)CC1.O=C(O)/C=C\C(=O)O [Crystal type A, 6-fluoro-3-(1-isopropyl-4-methylpiperidin-4-yl)-4H-benzo[4,5]imidazo[1,2-b]pyrazol-8-formamide.maleate monohydrate]
Appearance ([1]; 60° C. (open), day 10): White powder
Content (%) ([1]; 60° C. (open), day 10): 98.5%
Total impurities (%) ([1]; 60° C. (open), day 10): 0.11%
Appearance ([1]; 92.5% RH (open), day 10): White powder
Content (%) ([1]; 92.5% RH (open), day 10): 99.5%
Total impurities (%) ([1]; 92.5% RH (open), day 10): 0.10%
Appearance [1, 17]: White powder
Content (%) [1, 17]: 99.4%
Total impurities (%) [1, 17]: 0.11%
Appearance ([1]; initial, day 0): White powder
Content (%) ([1]; initial, day 0): 98.9%
Total impurities (%) ([1]; initial, day 0): 0.10%
Appearance (3 days) ([2]; Acetone, 25° C.): Suspension
Results (crystalline state by XRPD) ([2]; Acetone, stirred at 25° C.): Crystal type A
Appearance (3 days) ([2]; Acetone:water = 1:2, 25° C.): Suspension
Results (crystalline state by XRPD) ([2]; Acetone:water = 1:2, stirred at 25° C.): Crystal type A
Appearance (3 days) ([2]; Acetonitrile:water = 1:1, 25° C.): Suspension
Results (crystalline state by XRPD) ([2]; Acetonitrile:water = 1:1, stirred at 25° C.): Crystal type A
Appearance (3 days) ([2]; Ethanol, 25° C.): Suspension
Results (crystalline state by XRPD) ([2]; Ethanol, stirred at 25° C.): Crystal type A
Appearance (3 days) ([2]; Ethanol:water = 3:1, 25° C.): Suspension
Results (crystalline state by XRPD) ([2]; Ethanol:water = 3:1, stirred at 25° C.): Crystal type A
Appearance (3 days) ([2]; Ethyl acetate, 25° C.): Suspension
Results (crystalline state by XRPD) ([2]; Ethyl acetate, stirred at 25° C.): Crystal type A
Appearance (3 days) ([2]; Isopropanol, 25° C.): Suspension
Results (crystalline state by XRPD) ([2]; Isopropanol, stirred at 25° C.): Crystal type A
Appearance (3 days) ([2]; Isopropanol:water = 1:1, 25° C.): Suspension
Results (crystalline state by XRPD) ([2]; Isopropanol:water = 1:1, stirred at 25° C.): Crystal type A
Appearance (3 days) ([2]; Methanol, 25° C.): Suspension
Results (crystalline state by XRPD) ([2]; Methanol, stirred at 25° C.): Crystal type A
Appearance (3 days) ([2]; Methanol:water = 3:1, 25° C.): Suspension
Results (crystalline state by XRPD) ([2]; Methanol:water = 3:1, stirred at 25° C.): Crystal type A

IC50 (MDA-MB-231 cells; [6]): 4.17 µM
IC50 (MDA-MB-231 cells; [7]): 4.61 µM
IC50 (MDA-MB-231 cells; [8]): 3.72 µM
IC50 (MDA-MB-231 cells; MDA-MB-231, used singly, average, read-out: IC50_Avg): 3.42 µM
IC50 (MDA-MB-231 cells; MDA-MB-231, used singly, run N=1, read-out: IC50_N = 1): 3.33 µM
IC50 (MDA-MB-231 cells; MDA-MB-231, used singly, run N=2, read-out: IC50_N = 2): 3.52 µM
IC50 (MDA-MB-436 cells; [13]): 111 µM
IC50 (MDA-MB-436 cells; [14]): 80.2 µM
IC50 (MDA-MB-436 cells; MDA-MB-436, used singly, average, read-out: IC50_Avg): 107 µM
IC50 (MDA-MB-436 cells; MDA-MB-436, used singly, run N=1, read-out: IC50_N = 1): 152 µM
Structure (SMILES): Cn1nnc2c(C(N)=O)ncn2c1=O [TMZ, temozolomide]

Structure (SMILES): CC(C)N1CCC(C)(c2cnn3c2[nH]c2cc(F)cc(C(N)=O)c23)CC1 [Compound 1, 6-fluoro-3-(1-isopropyl-4-methylpiperidin-4-yl)-4H-benzo[4,5]imidazo[1,2-b]pyrazol-8-carboxamide]
IC50 (MDA-MB-231 cells; [3]): 4.86 µM
IC50 (MDA-MB-231 cells; [4]): 3.96 µM
IC50 (MDA-MB-231 cells; [5]): 5.75 µM
IC50 (MDA-MB-231 cells; [6]): 5.83 µM
IC50 (MDA-MB-231 cells; [7]): 6.21 µM
IC50 (MDA-MB-231 cells; [8]): 5.44 µM
PF50 (MDA-MB-231 cells; [9]): 1.20
inhibitory effect on cell line (MDA-MB-436 cells; BRAC mutant MDA-MB-436 cell line): strong inhibitory effect
IC50 (MDA-MB-436 cells; [10]): 0.007 µM
IC50 (MDA-MB-436 cells; [11]): 0.009 µM
IC50 (MDA-MB-436 cells; [12]): 0.005 µM
IC50 (MDA-MB-436 cells; [13]): 0.071 µM
IC50 (MDA-MB-436 cells; [14]): 0.089 µM
IC50 (MDA-MB-436 cells; [15]): 0.053 µM
PF50 (MDA-MB-436 cells; [16]): 9.84
synergistic effect (MDA-MB-436 cells; combined with TMZ): good synergistic effect
